The values that follow come from patent publication US20020127208A1, “Method of transplantation using chemotherapy-treated allogeneic cells that enhance immune responses without graft versus host disease” (priority 2000, published 2002).

For one data set, the system named is B/6 to F1 BMT mice. As to the kind of experiment: Lethality (GvHD) of 30x10^6 transferred lymphocytes without MCMV infection. The conditions noted are these: 30×10^6 lymphocytes; n=20. In kind it is in vivo, mouse. The text has this: FIGS. 9A-C. Adoptive immunotherapy to prevent MCMV lethality. Conditioned F1 recipients were infused with 5×10^6 TCD BM cells from B/6 donors. Some groups also received simultaneous infusions of 30×10^6 unselected splenocytes from B/6 donors previously infected with MCMV (immune). […] Following transplantation, mice were either infected with 2×10^4 PFU MCMV (A), or vehicle (B). Data from two separate experiments (n=20 mice per group) were combined for display and analysis. […] Survival was not improved when mice were infused with cultured (untreated) splenocytes (P>0.05). […]
To generate irradiated splenocytes for adoptive immunotherapy, cells were harvested after 24 hour culture and exposed to a single fraction of radiation from a ^137Cs source for a total of 7.5 Gy. […] The cells in a T75 tissue culture flask were then placed on a UVA (320-400 nm) illumination device with a nominal fluorescence of 7 mW (Cole Parmer, Vernon Hill, Ill.) and illuminated for 5 mins to achieve 3.0 J/cm^2 equivalent UVA dose. […]
One day prior to transplant, recipient F1 mice were conditioned using a ^137Cs source at a dose rate of 1.24 Gy/min. […] Mice were evaluated daily for morbidity and mortality. The development of clinical GvHD was prospectively monitored by weighing mice twice weekly, as well as observing for alopecia and/or ruffled fur, diarrhea, and decreased activity with a “hunched over” appearance. […]

The test system of data set [1] is MCMV. As to the kind of experiment: Adoptive immunotherapy against MCMV lethality, 10x10^6 lymphocytes, B/6 to F1 BMT. In kind it is in vivo, mouse. Particulars: day +120 post-BMT, MCMV infected; for % survival, immune splenocytes / Survivors/Total, immune splenocytes: 10×10^6 MCMV-immune lymphocytes; for % survival, naive splenocytes / Survivors/Total, naive splenocytes: 10×10^6 naive lymphocytes. The protocol: Spleens were removed from either untreated PepBoy mice (naive donors), or those that had been inoculated with 10^5-10^6 PFU MCMV 2-4 months earlier (immune donors).
To generate irradiated splenocytes for adoptive immunotherapy, cells were harvested after 24 hour culture and exposed to a single fraction of radiation from a ^137Cs source for a total of 7.5 Gy. S-59 psoralen (Cerus Corporation, Concord, Calif.) was added to some splenocytes cultures at the end of the 24 hour culture period at a final concentration of 2 nM. The cells in a T75 tissue culture flask were then placed on a UVA (320-400 nm) illumination device with a nominal fluorescence of 7 mW (Cole Parmer, Vernon Hill, Ill.) and illuminated for 5 mins to achieve 3.0 J/cm^2 equivalent UVA dose. Control (untreated) splenocytes were harvested after 24 hour culture without other interventions. For all four groups, lymphocytes were washed at the end of the culture/treatment period and the appropriate dosage of viable cells was used for adoptive immunotherapy.
One day prior to transplant, recipient F1 mice were conditioned using a ^137Cs source at a dose rate of 1.24 Gy/min. Two doses of 5.5 Gy were administered, 3 hours apart, for a total lethal dose of 11 Gy. Irradiated mice were given free access to drinking water containing oral antibiotics (1.1 mg/ml neomycin sulfate and 1000 U/ml polymyxin sulfate; Sigma, St. Louis, Mo.) starting 3 days prior to irradiation and continuing through the end of the experimental period. 5×10^6 T-cell depleted (TCD) BM cells in a total volume of 0.2 ml HBSS/FBS were injected into the tail vein of F1 mice on the day following irradiation. In adoptive immunotherapy experiments, the appropriate number of donor splenocytes were mixed with TCD BM cells and injected simultaneously in 0.2 ml total volume. Two hours after BMT, mice were injected intraperitoneally with appropriate MCMV inocula diluted in DMEM/CS. Control (uninfected) mice received DMEM/CS alone. Mice were evaluated daily for morbidity and mortality. The development of clinical GvHD was prospectively monitored by weighing mice twice weekly, as well as observing for alopecia and/or ruffled fur, diarrhea, and decreased activity with a “hunched over” appearance. Moribund mice were euthanized based on Emory IACUC end-points and protocols.
Lymphocytes were prepared from the spleens of naïve or MCMV-immune B/6 donors and 10×10^6 or 30×10^6 were infused IV at the time of B/6→F1 allogeneic BMT. […] Some groups of mice were subsequently infected with 2×10^4 PFU MCMV at two hours after BMT, a viral inoculum expected to produce 90-100% lethality (FIG. 8B).
Table 2: Effect of adoptive immunotherapy on the survival of B/6→F1 BMT mice following MCMV infection. At the time of BMT, mice were infused with 10×10^6 splenic lymphocytes from B/6 mice that were either previously-infected with MCMV (“Immune splenocytes”) or uninfected (“Naive splenocytes”). […] Some mice received lymphocytes that were untreated. The table lists the number of surviving mice (at day +120 post-BMT) and the total number of mice in each group, as well as the percentage survival.

The subject of data set [2] is MCMV. As to the kind of experiment: Adoptive immunotherapy against MCMV lethality, 30x10^6 MCMV-immune lymphocytes, B/6 to F1 BMT. The data set is classed as in vivo, mouse. Particulars: 30×10^6 immune lymphocytes; 2×10^4 PFU MCMV; P<0.001.
Excerpt: Spleens were removed from either untreated PepBoy mice (naive donors), or those that had been inoculated with 10^5-10^6 PFU MCMV 2-4 months earlier (immune donors). Polyclonal splenocytes were harvested by perfusing spleens with sterile HBSS/FBS. […]
In data set [3] the test system is liver of B/6 to F1 BMT mice. As to the kind of experiment: Histologic assessment of hepatic inflammation (GvHD) and MCMV inclusions. In kind it is in vivo, mouse. Particulars: day +14. The text has this:
FIGS. 11A-H. S-59/UVA-treated lymphocytes decrease hepatic MCMV infection without producing GvHD. […] Some mice were infected with 5×10^4 PFU MCMV (B, D, F, G), while others were uninfected (A, C, E). At day +14, livers were harvested from surviving mice and prepared for histologic examination. […] Numerous typical cytomegalic inclusions can be appreciated in a higher power photomicrograph (G). […] In contrast, mice infused with S-59/UVA lymphocytes had normal-appearing hepatic architecture with minimal detectable inflammation whether they were infected (F) or not (E).
Mice were euthanized, and segments of liver were immersion-fixed in 10% formalin, embedded in paraffin, cut in 8 μm sections, and stained with hematoxylin and eosin. […] Typical eosinophilic intranuclear cytomegalic inclusion bodies were counted in 10 contiguous high-power fields (hpf) on each section as a marker of viral replication. […] The results were decoded, tabulated, and analyzed by another co-author (J.R.).
A sample of liver was also prepared for microscopic quantitation of MCMV-infected cells and hepatic inflammation. A trained anatomic pathologist (D.J.), blinded to sample identity, scored the sections for MCMV inclusions and hepatic portal inflammation. Representative photomicrographs are shown in FIGS. 11(A-G) and quantitative data analysis in FIG. 11H. […]

The next data set deals with responder splenocytes. As to the kind of experiment: Proliferative response to allo-antigen (MLR) and mitogen, thymidine incorporation. The data set is classed as cell-based, mouse. Particulars: prior exposure to 20 μg/ml for 24 hours, vs control. From the text: A. Fludarabine attenuates the proliferative response of spleen cells to allogeneic stimulation (MLR) or mitogenic stimulation (con A). […] Strain combinations of DBA versus BL6 and BL6 versus DBA were used in the MLR experiments. CPM is expressed as percent of non-treated control.
4×10^6 cells/ml responder cells (either B10.BR, DBA/2, or Balb/c) were co-cultured with 2×10^6 irradiated (25 Gy) stimulator cells/ml (C57.BL6) in complete media with 10 U/ml IL-2 (Chiron Corporation, Emeryville, Calif.) and 10 ng/ml IL-7 (PeproTech Inc., Rocky Hill, N.J.) in 96 well plates. Proliferation was monitored by measuring DNA synthesis/thymidine incorporation. Cultures were pulsed with 1 uCi/well of tritiated thymidine (NEN Life Sciences, Boston, Mass.) on day 6, harvested onto filtermats using a Tomtec Harvester (Hamden, Conn.) on day 7, and read on MicroBeta TriLux counter (PerkinElmer, Inc., Gaithersburg, Md.).
(Dividing cells build labelled thymidine or BrdU into new DNA.)

The subject of another data set is splenocytes. As to the kind of experiment: Splenocyte viability in 24 hour culture.
The subject of data set [4] is lethally irradiated B10.BR (H2k) recipient mice. As to the kind of experiment: MHC mis-matched C57.BL6 to B10.BR transplant model: survival, GvHD (weight), donor engraftment. The data set is classed as in vivo, mouse. The conditions noted are these: splenocytes treated with 20 μg/ml vs control or other doses (0, 3, 10, 40 μg/ml).
Excerpt: Lethally irradiated (11 Gy) B10.BR (H2^k) recipient mice were transplanted with 1×10^6 BL6 (H2^b) TCD-BM cells (n=40, thin line). […] Survival and weight change data are derived from 2-6 individual experiments using 5 or 10 animals per group. Kaplan-Meier survival determinations are shown in A (ticks indicate time points at which individual experiments were terminated). Trend lines representing the mean weight change (percent body weight) for each group are shown in B. Trend lines were calculated using a moving average with a periodicity of 3.
1×10^6 TCD-BM cells and splenocytes from BL6 strains having different Thy1.1 or Thy1.2 isotypes were administered to lethally irradiated B10.BR mice. […] Donor splenocyte derived CD4+ (gray bars) and CD8+ (black bars) were quantified in the peripheral blood of recipient mice 2-4 months post-transplant.
B10.BR recipients were lethally irradiated and transplanted with 1×10^6 TCD-BM from CD45.1+ C57.BL6 donors. […] The fraction of blood T-cells derived from recipient, donor BM, and donor spleen were determined at day +27 post-transplant, using markers for T-cells (CD3), recipient-type cells (H2^k), donor-type cells (H2^b), and CD45.1/CD45.2 isoforms.
Recipient mice were irradiated 1 day prior to transplant using a ^137CS source at a rate of 1.24 Gy/min. […] The mice were monitored daily for survival; moribund animals were euthanized. […]
The next data set has as its system alloreactive T-cells. As to the kind of experiment: Limiting dilution assay of alloreactive cell frequency. The conditions noted are these: 20 μg/ml, B10.BR responders stimulated with C57.BL6.
Where [5] appears, read: 20 μg/ml fludarabine, 24 hour culture, % compared to starting cell no., mean ± SEM, 4 experiments.

Description for alloreactive T-cells: Limiting dilution assay of B10.BR responder cells stimulated with C57.BL6.
The frequency of alloreactive cells was measured using a limiting dilution assay . Briefly, 20,000 responder cells were three-fold serially diluted in 96-well plates with 12 replicate wells per dilution. 10,000 stimulator cells were added to each well in a combined total volume of 150 μl complete media. After 7 days in co-culture, the proliferation of responder cells was measured using tritiated thymidine incorporation. The number of responder cells was plotted versus the natural logarithm of the percentage of negative wells (i.e., wells with cpm readings lesser than media control). The reciprocal of the slope of the regression line yielded the frequency of alloreactive T-cells.

As to `Cc1oc2c(C)c3oc(=O)cc(C)c3cc2c1COCCN` [S-59], the “Mice that died without MCMV infection” value with B/6 to F1 BMT mice is recorded as “none”. For the same compound, in the data set on MCMV [1], the “% survival, immune splenocytes” value amounted to 90%; the “Survivors/Total, immune splenocytes” value was 9/10; the “% survival, naive splenocytes” value was 30%; the “Survivors/Total, naive splenocytes” value was 3/10. Further, the “Survival compared to mice that did not receive adoptive immunotherapy” value in the data set with MCMV [2] is given as “significantly improved survival”. For the same compound, the “Portal inflammation score (scale 1-5)” value in data set [3] (MCMV infected) came to 3.0. The “Portal inflammation score (scale 1-5)” value in data set [3] (not MCMV infected) is recorded as 2.3.
As for “9-beta-D-arabinosyl-2-fluoroadenine [Fludarabine]”, in the data set with MCMV [1], the “% survival, immune splenocytes” value is on record as 71%; the “Survivors/Total, immune splenocytes” value is 24/34; the “% survival, naive splenocytes” value is on record as 23%; the “Survivors/Total, naive splenocytes” value was 8/35. For the same compound, the “Survival compared to mice that did not receive adoptive immunotherapy” value in the data set with MCMV [2] is on record as “significantly improved survival”. The “Decrease of proliferative response to concanavalin A” value in the data set on responder splenocytes (10 μg/ml con A) amounted to 37%. Also, the “Reduction of thymidine incorporation after stimulation with allogeneic antigen (MLR)” value with responder splenocytes (7-day MLR) stood at 62%. For the same compound, in the data set with splenocytes (setting [5]), the “Splenocyte viability, CD4+ T-cells” value came to 69.0 ± 9.9%; the “Splenocyte viability, CD8+ T-cells” value is 62.1 ± 12.9%; the “Splenocyte viability, all leukocytes” value turned out to be 41.6 ± 7.8%; the “Splenocyte viability, non T-cells” value is given as 33.6 ± 6.4%. The “Splenocyte viability, all leukocytes” value in the data set on splenocytes (20 μg/ml fludarabine, 24 hour culture, % compared to starting cell no., mean ± SEM, 4 experiments, listed as fludarabine) is “approximately 42%”. In addition, the “T-cell viability after fludarabine culture” value in the data set on splenocytes (20 μg/ml, 24 hr) was 60-70%. Besides, in the data set with splenocytes (activated, allo-stimulated CTL's, in contrast to naive spleen cells), the “Viability of predominantly CD8+ cultured CTL's” value is “not affected”. The “40 day survival rate, pilot allogeneic transplant experiments” value in data set [4] is listed as “most favorable”. Moreover, the “Decrease in the frequency of allo-reactive T-cells” value in the data set with alloreactive T-cells amounted to 66%. Moreover, in the data set on alloreactive T-cells (untreated culture 1/205), the “Frequency of alloreactive cells in fludarabine treated culture” value was 1/621.
